# Read-outs that look alike come from different tables or passages of the source.
# Tests used:
# PI3Kβ = test: PI3 Kinase HTRF assay, PI3Kβ; format: biochemical, human; conditions: 10 μM PIP2, 10 μM ATP, read-out: PI3K β IC50
# Text: A PI3-Kinase HTRF® assay kit (cat No. 33-016) purchased from Millipore Corporation was used to screen compounds provided herein. This assay used specific, high affinity binding of the GRP1 pleckstrin homology (PH) domain to PIP3, the product of a Class 1A or 1B PI3 Kinase acting on its physiological substrate PIP2. During the detection phase of the assay, a complex was generated between the GST-tagged PH domain and biotinylated short chain PIP3. The biotinylated PIP3 and the GST-tagged PH domain recruited fluorophores (Streptavidin-Allophycocyanin and Europium-labeled anti-GST respectively) to form the fluorescence resonance energy transfer (FRET) architecture, generating a stable time-resolved FRET signal. The FRET complex was disrupted in a competitive manner by non-biotinylated PIP3, a product formed in the PI3 Kinase assay.
# PI3 Kinase α, β, γ and δ activity was assayed using the PI3 Kinase HTRF® assay kit (catalogue No. 33-016) purchased from Millipore Corporation. […] Purified recombinant PI3K enzyme was used to catalyze the phosphorylation of phosphatidylinositol 4,5-bisphosphate (PIP2 at 10 μM) to phosphatidylinositol 3,4,5-trisphosphate (PIP3) in the presence of 10 μM ATP. The assay was carried out in 384-well format and detected using a Perkin Elmer EnVision Xcite Multilabel Reader. Emission ratios were converted into percent inhibitions and imported into GraphPad Prism software. […] IC50 values were determined using a nonlinear regression model available in GraphPad Prism 5. […]
# Balb/c splenic B cells = test: B cell activation and proliferation assay (Alamar Blue); format: cell-based; conditions: Mus musculus
# Method: The ability of one or more subject compounds to inhibit B cell activation and proliferation is determined according to standard procedures known in the art. For example, an in vitro cellular proliferation assay is established that measures the metabolic activity of live cells. The assay is performed in a 96 well microtiter plate using Alamar Blue reduction. Balb/c splenic B cells are purified over a Ficoll-Paque™ PLUS gradient followed by magnetic cell separation using a MACS B cell Isolation Kit (Miletenyi). Cells are plated in 90 μl at 50,000 cells/well in B Cell Media (RPMI+10% FBS+Penn/Strep+50 μM bME+5 mM HEPES). A compound provided herein is diluted in B Cell Media and added in a 10 μl volume. Plates are incubated for 30 min at 37° C. and 5% CO2 (0.2% DMSO final concentration). A 50 μl B cell stimulation cocktail is then added containing either 10 μg/ml LPS or 5 μg/ml F(ab′)2 Donkey anti-mouse […] plus 2 ng/ml recombinant mouse IL4 in B Cell Media. Plates are incubated for 72 hours at 37° C. and 5% CO2. A volume of 15 μL of Alamar Blue reagent is added to each well and plates are incubated for 5 hours at 37° C. and 5% CO2. Alamar Blue fluoresce is read at 560Ex/590Em, and IC50 or EC50 values are calculated using GraphPad Prism 5.
# [1] = 'Greater than 10 μM' and 'Greater than 1 μM to 10 μM'
# Sequence of PI3Kβ (Q8BTI9 whole entry, the tested form may be a part): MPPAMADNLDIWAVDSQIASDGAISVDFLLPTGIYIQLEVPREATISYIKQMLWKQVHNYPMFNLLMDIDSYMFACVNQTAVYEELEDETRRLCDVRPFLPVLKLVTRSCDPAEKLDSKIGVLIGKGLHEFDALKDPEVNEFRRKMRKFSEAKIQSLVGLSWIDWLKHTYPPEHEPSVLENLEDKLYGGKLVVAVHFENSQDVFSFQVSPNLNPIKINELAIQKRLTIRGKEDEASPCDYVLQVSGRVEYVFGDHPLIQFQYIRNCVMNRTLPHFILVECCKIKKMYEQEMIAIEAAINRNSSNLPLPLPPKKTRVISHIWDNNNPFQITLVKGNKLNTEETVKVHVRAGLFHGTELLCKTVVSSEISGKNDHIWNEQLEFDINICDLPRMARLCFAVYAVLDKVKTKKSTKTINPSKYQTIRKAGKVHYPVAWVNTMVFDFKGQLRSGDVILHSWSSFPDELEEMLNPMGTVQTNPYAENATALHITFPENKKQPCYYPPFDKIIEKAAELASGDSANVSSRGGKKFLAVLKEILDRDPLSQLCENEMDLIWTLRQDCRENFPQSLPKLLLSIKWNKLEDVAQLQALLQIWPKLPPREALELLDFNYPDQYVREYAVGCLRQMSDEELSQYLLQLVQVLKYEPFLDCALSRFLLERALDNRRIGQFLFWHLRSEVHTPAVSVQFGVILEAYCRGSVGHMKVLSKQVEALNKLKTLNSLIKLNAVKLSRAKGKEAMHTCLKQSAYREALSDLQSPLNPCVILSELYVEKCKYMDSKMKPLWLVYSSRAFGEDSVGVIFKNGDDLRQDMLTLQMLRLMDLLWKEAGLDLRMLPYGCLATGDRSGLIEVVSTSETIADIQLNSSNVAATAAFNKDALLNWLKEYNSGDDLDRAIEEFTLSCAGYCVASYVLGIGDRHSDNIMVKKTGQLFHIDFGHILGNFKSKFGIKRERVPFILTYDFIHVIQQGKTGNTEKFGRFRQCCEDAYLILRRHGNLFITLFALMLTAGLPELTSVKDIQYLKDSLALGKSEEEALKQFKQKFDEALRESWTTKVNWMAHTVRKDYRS
IC50 (PI3Kβ; [1]) [µM],Structure (SMILES),EC50 (Balb/c splenic B cells; 'Less than 100 nM') [µM],further results
1 to 10,Cc1cc(-c2cccc3cc([C@H](C)Nc4nc(N)nc5cccnc45)n(-c4ccccc4)c(=O)c23)ccn1 [Compound I-81],< 0.1,
> 10,COc1nc(N[C@@H](C)c2cc3cccc(Cl)c3c(=O)n2-c2ccccc2)c2ncccc2n1 [Compound I-71],,
1 to 10,COc1cncc(-c2cccc3cc([C@H](C)Nc4nc(N)nc5cccnc45)n(-c4ccccc4)c(=O)c23)c1 [Compound I-58],< 0.1,
1 to 10,Cc1cc(-c2cccc3cc([C@H](C)Nc4ncnc5cccnc45)n(-c4ccccc4)c(=O)c23)ccn1 [Compound I-76],< 0.1,
> 10,C[C@H](Nc1nc(O)nc2[nH]cnc12)c1cc2cccc(C(F)(F)F)c2c(=O)n1-c1cccc(F)c1 [III-48],,
1 to 10,Cc1ncc(-c2cccc3cc([C@H](C)Nc4nc(N)nc5cccnc45)n(-c4ccccc4)c(=O)c23)s1 [Compound I-94],,
1 to 10,C[C@H](Nc1ncnc2cccnc12)c1cc2cccc(-c3cnc(N)nc3)c2c(=O)n1-c1ccccc1 [Compound I-63],< 0.1,
> 10,C[C@H](Nc1nc(O)nc2cccnc12)c1cc2cccc(C(F)(F)F)c2c(=O)n1-c1cccc(F)c1 [III-47],,
> 10,C[C@H](Nc1nc(Cl)nc2cccnc12)c1cc2cccc(-c3cnn(C)c3)c2c(=O)n1-c1ccccc1 [Compound I-35],,
> 10,CNc1nc(N[C@@H](C)c2cc3cccc(-c4cnc(OC)nc4)c3c(=O)n2-c2ccccc2)c2ncccc2n1 [Compound I-97],< 0.1,
> 10,CNc1nc(N[C@@H](C)c2cc3cccc(-c4cnc(C)nc4)c3c(=O)n2-c2ccccc2)c2ncccc2n1 [Compound I-98],,EC50 (Balb/c splenic B cells; 1 μM to 100 nM): 0.1 to 1 µM
> 10,C[C@H](Nc1nc(Cl)nc2cccnc12)c1cc2cccc(-c3cnn(C)c3)c2c(=O)n1C1CC1 [Compound I-39],,
1 to 10,COc1ccc(CNc2nc(N[C@@H](C)c3cc4cccc(-c5cnc(OC)nc5)c4c(=O)n3-c3ccccc3)c3ncccc3n2)cc1 [Compound I-93],,
1 to 10,C[C@H](Nc1ncnc2ccnn12)c1cc2cccc(Cl)c2c(=O)n1-c1cccc(F)c1 [II-30],< 0.1,
1 to 10,C[C@H](Nc1nc(N)nc2cccnc12)c1cc2cccc(-c3cnn(C)c3)c2c(=O)n1C1CC1 [Compound I-40],< 0.1,
1 to 10,C[C@H](Nc1nc(N)nc2nccnc12)c1cc2cccc(Cl)c2c(=O)n1-c1ccccc1 [IV-22],< 0.1,
> 10,COc1ncc(-c2cccc3cc([C@H](C)Nc4cc(N)nc5ccnn45)n(-c4ccccc4)c(=O)c23)cn1 [II-50],< 0.1,
> 10,C[C@H](Nc1cc(Cl)nn2ccnc12)c1cc2cccc(-c3cnn(C)c3)c2c(=O)n1-c1cccc(F)c1 [II-16],,
> 10,COc1ncc(-c2cccc3cc([C@H](C)Nc4nc(OC)nc5cccnc45)n(-c4ccccc4)c(=O)c23)cn1 [Compound I-72],,
> 10,COc1ncc(-c2cccc3cc([C@H](C)Nc4nc(O)nc5cccnc45)n(-c4ccccc4)c(=O)c23)cn1 [Compound I-77],,
1 to 10,C[C@H](Nc1nc(Cl)nc2scnc12)c1cc2cccc(C(F)(F)F)c2c(=O)n1-c1ccccc1 [III-24],,
> 10,COc1cncc(-c2cccc3cc([C@H](C)Nc4ncnc5cccnc45)n(-c4ccccc4)c(=O)c23)c1 [Compound I-45],,
> 10,C[C@H](Nc1nc(Cl)nc2cccnc12)c1cc2cccc(-c3cnn(C)c3)c2c(=O)n1-c1cccc(F)c1 [Compound I-37],,

# Further lines, the compound ahead of its results:
Structure (SMILES),IC50 (PI3Kβ; [1]) [µM],EC50 (Balb/c splenic B cells; 'Less than 100 nM') [µM],further results
C[C@H](Nc1cc(Cl)ncc1C(N)=O)c1cc2cccc(Cl)c2c(=O)n1-c1ccccc1 [IV-21],> 10,,
C[C@H](Nc1ncnc2ccnn12)c1cc2cccc(C(F)(F)F)c2c(=O)n1-c1ccccc1 [III-21],1 to 10,,
C[C@H](Nc1ccnc2ccnn12)c1cc2cccc(C(F)(F)F)c2c(=O)n1-c1cccc(F)c1 [III-11],1 to 10,< 0.1,
C[C@H](Nc1ncnc2[nH]nc(C#N)c12)c1cc2cccc(Cl)c2c(=O)n1-c1ccccc1 [IV-11],1 to 10,< 0.1,
C[C@H](Nc1nc(N)nc2cccnc12)c1cc2cccc(-c3cnc4[nH]ccc4c3)c2c(=O)n1-c1ccccc1 [Compound I-83],,< 0.1,
Cc1ccnc2cc(C(C)Nc3ncnc4cccnc34)n(-c3ccccc3)c(=O)c12 (stereo not drawn) [Compound I-65],1 to 10,,
C[C@H](Nc1nc(N)nc2cccnc12)c1cc2cccc(Cl)c2c(=O)n1-c1ccccc1 [Compound I-92],,,IC50 (PI3Kβ; 'Less than 100 nM'): < 0.1 µM
C[C@H](Nc1ccn2nccc2n1)c1cc2cccc(Cl)c2c(=O)n1-c1ccccc1 [IV-6],> 10,,
C[C@H](Nc1nc(Cl)ns1)c1cc2cccc(Cl)c2c(=O)n1-c1ccccc1 [IV-27],> 10,,
C[C@H](Nc1ncnc2cccnc12)c1cc2cccc(Cl)c2c(=O)n1C1CC1 [Compound I-23],,< 0.1,IC50 (PI3Kβ; 'Less than 100 nM'): < 0.1 µM
C[C@H](Nc1nc(N)ncc1C(F)(F)F)c1cc2cccc(C(F)(F)F)c2c(=O)n1-c1ccccc1 [III-32],1 to 10,,
C[C@H](Nc1ccnn2ccnc12)c1cc2scc(-c3cnn(C)c3)c2c(=O)n1-c1ccccc1 [II-23],> 10,,
C[C@H](Nc1cc(Cl)ncc1C#N)c1cc2cccc(Cl)c2c(=O)n1-c1ccccc1 [IV-23],> 10,,
C[C@H](Nc1cc(N)nc2ccnn12)c1cc2cccc(Cl)c2c(=O)n1-c1ccccc1 [II-49],1 to 10,< 0.1,
C[C@H](Nc1nc(N)nc2[nH]cnc12)c1cc2cccc(C(F)(F)F)c2c(=O)n1-c1ccccc1 [III-17],,< 0.1,IC50 (PI3Kβ; 'Less than 100 nM'): < 0.1 µM
C[C@H](Nc1ncc(C(F)(F)F)c(N)n1)c1cc2cccc(Cl)c2c(CCN2CCOCC2)n1 [IV-10],> 10,,
C[C@H](NCc1cccnc1N)c1cc2cccc(Cl)c2c(=O)n1-c1ccccc1 [IV-8],> 10,,
C[C@H](Nc1ncnc2cccnc12)c1cc2cccc(Cl)c2c(=O)n1CCN1CCCC1 [Compound I-33],,< 0.1,
C[C@H](Nc1ncnc2cccnc12)c1cc2cccc(Cl)c2c(=O)n1-c1cccc(F)c1 [Compound I-20],,< 0.1,
C[C@H](Nc1ncnc2cccnc12)c1cc2ccc(F)c(Cl)c2c(=O)n1-c1ccccc1 [Compound I-16],,< 0.1,
C[C@H](Nc1ncnc2cnccc12)c1cc2cccc(Cl)c2c(=O)n1-c1ccccc1 [IV-5],> 10,,
C[C@H](Nc1ncnc2cccnc12)c1cc2cccc(C(=O)O)c2c(=O)n1-c1ccccc1 [Compound I-62],> 10,,
COc1ncc(-c2cccc3cc([C@H](C)Nc4ccnc5ccnn45)n(-c4ccccc4)c(=O)c23)cn1 [II-47],> 10,,
C[C@@H](c1cc2cccc(Cl)c2c(=O)n1-c1ccccc1)n1c(=O)[nH]c2cnc(N)nc21 [IV-26],> 10,,
C[C@H](Nc1ccnc2ccnn12)c1cc2scc(-c3cnn(C)c3)c2c(=O)n1-c1ccccc1 [II-21],> 10,,
CCOC(=O)c1cnc(N[C@@H](C)c2cc3cccc(-c4ccnc(OC)c4)c3c(=O)n2-c2ccccc2)nc1N [IV-25],> 10,,
C[C@H](Nc1nccc2nccn12)c1cc2cccc(Cl)c2c(=O)n1-c1ccccc1 [IV-4],> 10,,
C[C@H](Nc1cc(N)ncc1C(N)=O)c1cc2cccc(Cl)c2c(=O)n1-c1ccccc1 [IV-24],,,IC50 (PI3Kβ; 'Less than 100 nM'): < 0.1 µM
